From US20240285630A1, “Methods and compositions for improving exercise performance” (MEZZION PHARMA CO., LTD., priority 2021, published 2024)

Tests used:
[1] = system: adolescents with Fontan physiology; test: FUEL Trial echocardiographic myocardial performance index (MPI), blood pool Doppler; assay type: in vivo, human
From the text: Generally speaking, MPI (also referred to as the Doppler-derived index or Tei Index) is a measure of ventricular systolic and diastolic function as determined by a focused echocardiogram. It combines systolic and diastolic time intervals to assess heart function. More specifically, MPI can be used to assess ventricular performance represented by a numeric value using cardiac time intervals. This numeric value equals the sum of isovolumetric contraction time (ICT) and isovolumetric relaxation time (IRT) divided by ejection time (ET) and can be determined for either the left or right ventricle. Pellett, A. A., et al.: The Tei Index: Methodology and Disease. State Values. Echocardiography: A Jrnl. of CV Ultrasound & Allied Tech. 21(7):669-672 (2004); and Ulugay, A., Tatli E.: Myocardial performance index. Anadolu Kardiyol Derg. 8(2):143-8 (April 2008), both of which are incorporated herein by reference in their entireties. In the FUEL Trial, the MPI measured the performance of the single functioning ventricle. Thus, the MPI results from the FUEL Trial were determined by velocities obtained from blood pool Doppler assessment of the inflow and outflow tract of the functioning single ventricle. In other words, the FUEL Trial MPI was determined by measuring the cardiac time intervals using pulsed-wave Doppler velocity spectra of the ventricular inflow and outflow of the single functioning ventricle.
Echocardiograms were performed by sonographers with specific training for this protocol. The primary outcome of interest was MPI using Doppler-based measures of inflow and outflow duration. The duration of inflow into the dominant ventricle and outflow across the dominant semilunar valve were measured and used to calculate MPI using the standard formula. Tei C, Ling L H, Hodge D O, et al.: New index of combined systolic and diastolic myocardial performance: a simple and reproducible measure of cardiac function-a study in normals and dilated cardiomyopathy. J Cardiol, 26(6):357-66 (1995); and Pellet A A et al.: The Tei Index: Methodology and Disease State Values. Echocardiography: A Jrnl Of CV Ultrasound & Allied Tech, 21(7):669-672 (2004). Additional tissue Doppler images were obtained and used to calculate the tissue Doppler based MPI as previously described. Harada K, Tamura M, Toyono M et al.: Comparison of the right ventricular Tei index by tissue Doppler imaging to that obtained by pulsed Doppler in children without heart disease. Am J Cardiol, 90(5):566-9 (2002).
Whenever possible, three measurements were made and the mean duration was used for the calculation.
Each subject underwent an echocardiogram at the start and finish of the 26 weeks. […] Table 3. […] The change in the MPI was determined by velocities obtained from blood pool Doppler assessment of the inflow and outflow tract of the single functioning dominant ventricle. All measurements were made by the echocardiography core lab at the Children's Hospital of Wisconsin.

[2] = system: adolescents with Fontan physiology; test: FUEL Trial safety, adverse event reports; assay type: in vivo, human
From the text: The primary outcome was the change in oxygen consumption at peak exercise (max or peak VO2) from baseline to the 26-week visit. Secondary exercise outcomes included change in additional measures at maximal exertion, as well as change in measures of submaximal exercise at the ventilatory anaerobic threshold (VAT). The primary outcome for clinical secondary aims included change in myocardial performance index (MPI), an echocardiographically-derived measure of systolic and diastolic ventricular function, change in log-transformed reactive hyperemia index (InRHI), a PAT-derived measure of peripheral vascular function, and change in log-transformed serum BNP level. Safety was monitored through adverse event reports, which were collected according to a pre-specified protocol of study coordinator outreach, and through ad hoc patient and family communication with members of the study team at each site.
The primary outcome for clinical secondary aims included the between group differences in change in myocardial performance index (MPI), an echocardiographically-derived measure of systolic and diastolic ventricular function, change in log-transformed reactive hyperemia index (InRHI), a PAT-derived measure of peripheral vascular function, and change in log-transformed serum BNP level. Measurements for each of these secondary outcomes were performed at core labs. Safety was monitored through adverse event reports, which were collected according to a pre-specified protocol of study coordinator outreach, and through ad hoc patient and family communication with members of the study team at each site.
A sample size of 200 participants per arm was chosen to allow for 90% power to detect a mean treatment difference in change from baseline to 26-week testing in peak VO2 of 10% with a type 1 error of 0.05. We assumed a baseline standard deviation of 7.235 ml/kg/min, a correlation between peak VO2 measurements of 0.33, a drop-out and incomplete testing rate of 10%, and failure to reach maximal effort at the 26-week exercise testing in 15% of participants. These assumptions were based on historical data and reflect a conservative approach to assessing within-participant correlations and failure to reach maximal effort and the analysis was performed using a two-sample, independent means t-test. The primary analysis used the intention-to-treat population to evaluate the difference in the change in the primary outcome between treatment arms. This difference was assessed with an analysis of covariance (ANCOVA) with fixed factors for ventricular morphology (single left versus single right or mixed) and treatment group, with a continuous covariate of baseline peak VO2. For those without data at the 26-week visit, this value was imputed as equal to the baseline value (no change). The alpha level was set at 0.05 with two-sided testing. All statistical analyses were performed using SAS statistical software 9.4 (SAS Institute, Inc., Cary, North Carolina). Secondary analyses included participants who successfully completed the protocol with measurable values at each of the secondary endpoints. Secondary outcomes of continuous data points were analyzed in the manner described for the primary outcome. In order to assess the generalizability of findings at the ventilatory anaerobic threshold, demographic and clinical characteristics were compared between participants without paired VO2 at VAT data and those comprising the remainder of the cohort using the Student's t-test and Fisher's exact test. Fisher's exact test was used to compare adverse events between the udenafil and placebo cohorts.

## CCCOc1ccc(S(=O)(=O)NCCC2CCCN2C)cc1-c1nc2c(CCC)nn(C)c2c(=O)[nH]1 (stereo not drawn) [Udenafil, udenafil]
[1]; ITT population
  MPI, median of the difference Week 26 - baseline: −0.01
[1]; ITT population, ANCOVA
  MPI difference Week 26 - baseline, LS Mean Dif A − B (SE), udenafil minus placebo: −0.03 (0.014)
[1]; ITT population, ANOVA
  MPI at Week 26, LS Mean Dif A − B (SE), udenafil minus placebo: −0.04 (0.018)
[1]; ITT population, N=146
  MPI at Week 26, mean: 146: 0.42
[1]; all participants with paired data n=122, decrease shows improvement, p=0.028 vs placebo
  MPI, difference Week 26 - baseline, mean: −0.02
[1]; baseline peak VO2 <80% predicted, N=189
  MPI, difference in change (treatment - placebo): −0.04
[1]; baseline peak VO2 ≥80% predicted, N=60
  MPI, difference in change (treatment - placebo): 0.01
[1]; excluding those with baseline peak VO2 ≥80% predicted, n=94
  MPI, 26 week - baseline: −0.03
[2]; human, in vivo, 26 weeks
  Dizziness, % of participants: (8.0) %
  Dizziness, number of participants: 16
  Epistaxis, % of participants: (10.5) %
  Epistaxis, number of participants: 21
  Flushing, % of participants: (16.0) %
  Flushing, number of participants: 32
  Headache, % of participants: (39.5) %
  Headache, number of participants: 79
  Nausea/vomiting, % of participants: (15.5) %
  Nausea/vomiting, number of participants: 31
  Participants who experienced a serious adverse event: 14
  Serious adverse events with possible, probable, or definite relationship to study drug: 3
[2]; in vivo
  Priapism: no reported episodes of priapism
[2]; male, human, in vivo, 26 weeks
  Increased erection, % of male participants: (11.7) %
  Increased erection, number of participants: 13
[2]; study cohort
  Deaths: no deaths
